Molecular target: T1, TRESK (Mus musculus, UniProt Q6VV64)
T1 construct: gene Kcnk18
T1 sequence (Q6VV64 1-394): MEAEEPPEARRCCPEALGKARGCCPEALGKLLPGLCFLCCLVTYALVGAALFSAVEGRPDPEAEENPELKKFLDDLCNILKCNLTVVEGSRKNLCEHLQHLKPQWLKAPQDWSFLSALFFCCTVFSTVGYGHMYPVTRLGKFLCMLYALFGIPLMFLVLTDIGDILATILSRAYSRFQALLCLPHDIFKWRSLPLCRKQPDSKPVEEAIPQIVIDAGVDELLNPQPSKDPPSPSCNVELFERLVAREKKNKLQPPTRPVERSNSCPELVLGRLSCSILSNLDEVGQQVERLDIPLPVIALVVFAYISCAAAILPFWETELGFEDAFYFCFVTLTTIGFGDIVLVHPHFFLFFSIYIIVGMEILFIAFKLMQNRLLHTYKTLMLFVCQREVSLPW
Experiment: whole-cell patch clamp, photoblock of mouse versus human channel
Type: cell-based

For `COc1ccccc1C(=O)Nc1cccc(N=Nc2cccc(C)c2)c1` [LAKI], the “whole-cell patch clamp, photoblock of mouse versus human channel” value was “LAKI photoblock is conserved among species since TRESK and TRAAK channel inhibitions are similar in mouse and human”.
